According to patent US20040151679A1, “Dissolving agent for melanin” (priority 2001, published 2004):

Experiment: Rate of dissolution of model melanin and color of its solutions
Assay type: physicochemical, Aspergillus niger
Conditions: for Time of dissolution: model melanin; for Color of the solution: solution of model melanin

| SMILES | pH of the solution | Time of dissolution [min] | Color of the solution | Time of dissolution (not dissolved within this time) | Time of dissolution (1 mg/ml in PFOC) [min] |
| --- | --- | --- | --- | --- | --- |
| [Na+].[OH-] [0.01 N sodium hydroxide, sodium hydroxide] | 9.5 | 6 | Yellow- | – | – |
| CC(=O)O [0.01 N solution of acetic acid, acetic acid] | 3.5 | – | – | Not dissolved in 5 hours | – |
| N [0.01% ammonia, ammonia] | 10.5 | 5 | -”- | – | – |
| OO [4% solution of HP, hydrogen peroxide] | 3.5 | – | – | Not dissolved in 5 hours | – |
| FN(F)C1(C(F)(F)F)C(F)(F)C(F)(F)C(F)(F)C(F)(C(F)(F)F)C1(F)F (stereo not drawn) [Perfluoro-1,3-dimethyl-cyclohexylamine] | 7 | 3 | Lemon | – | – |

Now from value to compound:

| pH of the solution | Time of dissolution [min] | Color of the solution | Time of dissolution (not dissolved within this time) | Time of dissolution (1 mg/ml in PFOC) [min] | SMILES |
| --- | --- | --- | --- | --- | --- |
| 7 | 5 | Colorless | – | – | FC(F)(Br)C(F)(F)Br [1,2-dibromtetrafluoroethane] |
| 10 | 2 | -”- | – | – | NCCO [Monoethanolamine] |
| 7 | – | Colorless | – | 0.5 | FC1(F)C(F)(F)C(F)(F)C2(F)C(F)(F)C(F)(F)C(F)(F)C(F)(F)C2(F)C1(F)F (stereo not drawn) [Perfluorodecalin (PFD), perfluorodecalin] |
| 7 | – | Colorless | – | 0.5 | FC(F)(F)C(F)(F)C(F)(F)N(C(F)(F)C(F)(F)C(F)(F)F)C(F)(F)C(F)(F)C(F)(F)F [Tri(perfluoropropyl)amine (TPA), tri(perfluoropropyl)amine] |
| 8 | – | – | Not dissolved in 5 hours | – | CCN(CC)CC [Triethylamine] |
